Measurements taken from ChEMBL document CHEMBL1201862, “PubChem BioAssay data set” (2004).
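Protocol summary: plate cells (96-well), add compound at 5 concentrations, incubate 48 h, interpolate endpoints linearly. GI50: concentration for 50% inhibition of growth.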 Activity calls are given as the source filed them. Rule as the data show it: active = GI50 up to about 1.1 µM and inactive = higher.

Legend:
Experiment in all cases: NCI tumour cell line growth inhibition, 48 h
HCT-15 = test system: HCT-15
RXF 393 = test system: RXF 393
NCI-H226 = test system: NCI-H226
EKVX = test system: EKVX
MOLT-4 = test system: MOLT-4
BT-549 = test system: BT-549
UACC-257 = test system: UACC-257
UO-31 = test system: UO-31
SNB-19 = test system: SNB-19
SK-OV-3 = test system: SK-OV-3
CCRF-CEM = test system: CCRF-CEM
CAKI-1 = test system: CAKI-1
HCT-116 = test system: HCT-116
T47D = test system: T47D
UACC-62 = test system: UACC-62
786-0 = test system: 786-0
HT-29 = test system: HT-29
SK-MEL-28 = test system: SK-MEL-28
Hs-578T = test system: Hs-578T
LOX IMVI = test system: LOX IMVI

Structure (SMILES)	GI50 (HCT-15) [µM]	GI50 (RXF 393)	GI50 (NCI-H226)	GI50 (EKVX)	GI50 (MOLT-4)	GI50 (BT-549)	GI50 (UACC-257)	GI50 (UO-31)	GI50 (SNB-19)	GI50 (SK-OV-3)	GI50 (CCRF-CEM)	GI50 (CAKI-1)	GI50 (HCT-116)	GI50 (T47D)	GI50 (UACC-62)	GI50 (786-0)	GI50 (HT-29)	GI50 (SK-MEL-28)	GI50 (Hs-578T)	GI50 (LOX IMVI)
O=[N+]([O-])c1ccc2nc(-c3ccccn3)c(-c3ccccn3)nc2c1	43	86.5 µM (inactive)	> 100 µM (inactive)	71 µM (inactive)	> 100 µM (inactive)	> 100 µM (inactive)	98.4 µM (inactive)	> 100 µM (inactive)	> 100 µM (inactive)	> 100 µM (inactive)	69.8 µM (inactive)	> 100 µM (inactive)	38.9 µM (inactive)	> 100 µM (inactive)	44.5 µM (inactive)	> 100 µM (inactive)	40.5 µM (inactive)	> 100 µM (inactive)	> 100 µM (inactive)	–
CNc1nc(=S)[nH]c2sc3c(c12)CCCC3	> 75	> 75 µM (inactive)	> 75 µM (inactive)	45.1 µM (inactive)	> 75 µM (inactive)	> 75 µM (inactive)	> 75 µM (inactive)	67 µM (inactive)	> 75 µM (inactive)	–	–	> 75 µM (inactive)	> 75 µM (inactive)	> 75 µM (inactive)	> 75 µM (inactive)	> 75 µM (inactive)	> 75 µM (inactive)	> 75 µM (inactive)	> 75 µM (inactive)	> 75 µM (inactive)
Cc1ccc2c(c1C)CC1(Cc3c(C)ccc(C)c3C1=O)C2=O (centres undefined)	> 100	> 100 µM (inactive)	> 100 µM (inactive)	> 100 µM (inactive)	> 100 µM (inactive)	> 100 µM (inactive)	> 100 µM (inactive)	> 100 µM (inactive)	> 100 µM (inactive)	> 100 µM (inactive)	> 100 µM (inactive)	> 100 µM (inactive)	> 100 µM (inactive)	> 100 µM (inactive)	> 100 µM (inactive)	> 100 µM (inactive)	> 100 µM (inactive)	> 100 µM (inactive)	> 100 µM (inactive)	–
C=CCNC1=C2C[C@@H](C)C[C@@H](OC)[C@H](OC(=O)CCCCN)[C@H](C)/C=C(\C)[C@@H](OC(N)=O)[C@H](OC)/C=C\C=C(/C)C(=O)NC(=CC1=O)C2=O	18.7	14.8 µM (inactive)	–	13.7 µM (inactive)	9.14 µM (inactive)	19 µM (inactive)	6.17 µM (inactive)	19.5 µM (inactive)	11.3 µM (inactive)	6.31 µM (inactive)	7.01 µM (inactive)	18.5 µM (inactive)	13.8 µM (inactive)	14.8 µM (inactive)	14.6 µM (inactive)	13.4 µM (inactive)	4.27 µM (inactive)	18.5 µM (inactive)	25.6 µM (inactive)	12.6 µM (inactive)
CC1(C)OC2[C@@H](CO[C@@]3([C@H]4OC(C)(C)O[C@@H]4CO)OC(C)(C)O[C@@H]23)O1 (some centres undefined)	> 100	> 100 µM (inactive)	> 100 µM (inactive)	> 100 µM (inactive)	> 100 µM (inactive)	> 100 µM (inactive)	–	> 100 µM (inactive)	> 100 µM (inactive)	> 100 µM (inactive)	> 100 µM (inactive)	–	> 100 µM (inactive)	> 100 µM (inactive)	> 100 µM (inactive)	> 100 µM (inactive)	> 100 µM (inactive)	> 100 µM (inactive)	> 100 µM (inactive)	> 100 µM (inactive)
O=C1CSC(c2cccc([N+](=O)[O-])c2)N1c1ccc(-n2c(-c3ccccc3)nc3ccccc3c2=O)cc1 (centres undefined)	30.5	–	> 100 µM (inactive)	> 100 µM (inactive)	83.8 µM (inactive)	28.2 µM (inactive)	> 100 µM (inactive)	3.76 µM (inactive)	> 100 µM (inactive)	26.2 µM (inactive)	> 100 µM (inactive)	> 100 µM (inactive)	> 100 µM (inactive)	6.68 µM (inactive)	13.9 µM (inactive)	> 100 µM (inactive)	> 100 µM (inactive)	> 100 µM (inactive)	78.2 µM (inactive)	> 100 µM (inactive)
CCCCn1c(C)c2c(c1C)C(=O)N(CCN1CCN(c3ccccc3Cl)CC1)C2=O	35.6	–	36.9 µM (inactive)	35.6 µM (inactive)	22 µM (inactive)	17.3 µM (inactive)	28.6 µM (inactive)	17.6 µM (inactive)	92.3 µM (inactive)	21.6 µM (inactive)	29.3 µM (inactive)	69.3 µM (inactive)	18.6 µM (inactive)	22.5 µM (inactive)	32.4 µM (inactive)	> 10 µM (inactive)	16.4 µM (inactive)	–	> 100 µM (inactive)	16.5 µM (inactive)
COc1nc(=O)n(C2CC(N=[N+]=[N-])C(CO)O2)cc1C (centres undefined)	> 100	–	> 100 µM (inactive)	> 100 µM (inactive)	> 100 µM (inactive)	> 100 µM (inactive)	> 100 µM (inactive)	52 µM (inactive)	> 100 µM (inactive)	–	> 100 µM (inactive)	–	> 100 µM (inactive)	> 100 µM (inactive)	> 100 µM (inactive)	> 100 µM (inactive)	> 100 µM (inactive)	> 100 µM (inactive)	> 100 µM (inactive)	> 100 µM (inactive)
CCN(CC)CCCC(C)Nc1ccnc(/C=C/c2ccc(Cl)cc2)c1 (centres undefined)	1.82	–	–	4.2 µM (inactive)	1.22 µM (inactive)	2.19 µM (inactive)	2.02 µM (inactive)	1.52 µM (inactive)	3.4 µM (inactive)	3.61 µM (inactive)	1.2 µM (inactive)	2.29 µM (inactive)	1.72 µM (inactive)	1.93 µM (inactive)	1.94 µM (inactive)	1.41 µM (inactive)	3.49 µM (inactive)	1.7 µM (inactive)	2.26 µM (inactive)	1.26 µM (inactive)
O=CNc1ccc(S(=O)(=O)c2ccc(NC=O)cc2)cc1	> 100	–	–	> 100 µM (inactive)	> 100 µM (inactive)	> 100 µM (inactive)	> 100 µM (inactive)	> 100 µM (inactive)	> 100 µM (inactive)	> 100 µM (inactive)	> 100 µM (inactive)	> 100 µM (inactive)	> 100 µM (inactive)	> 100 µM (inactive)	> 100 µM (inactive)	> 100 µM (inactive)	> 100 µM (inactive)	> 100 µM (inactive)	> 100 µM (inactive)	> 100 µM (inactive)
[N-]=[N+]=Nc1c(-c2ccccc2)c(=O)n(-c2ccccc2)c2ccccc12	38.2	45.7 µM (inactive)	91.4 µM (inactive)	17.6 µM (inactive)	75.7 µM (inactive)	> 100 µM (inactive)	65.8 µM (inactive)	37.3 µM (inactive)	–	> 100 µM (inactive)	> 100 µM (inactive)	–	34.7 µM (inactive)	24.6 µM (inactive)	56 µM (inactive)	> 100 µM (inactive)	41.7 µM (inactive)	94.6 µM (inactive)	56.9 µM (inactive)	63.2 µM (inactive)
O=C(O)c1ccc(NC(NC(=O)C(C(F)(F)F)C(F)(F)F)(C(F)(F)F)C(F)(F)F)cc1	> 100	> 100 µM (inactive)	–	> 100 µM (inactive)	> 100 µM (inactive)	> 100 µM (inactive)	> 100 µM (inactive)	> 100 µM (inactive)	> 100 µM (inactive)	> 100 µM (inactive)	> 100 µM (inactive)	> 100 µM (inactive)	> 100 µM (inactive)	> 100 µM (inactive)	–	> 100 µM (inactive)	> 100 µM (inactive)	> 100 µM (inactive)	> 100 µM (inactive)	> 100 µM (inactive)
Cc1ccc(S(=O)(=O)NCCN(CCNS(=O)(=O)c2ccc(C)cc2)S(=O)(=O)c2ccc(C)cc2)cc1	> 100	87.9 µM (inactive)	–	85.1 µM (inactive)	> 100 µM (inactive)	> 100 µM (inactive)	29.1 µM (inactive)	> 100 µM (inactive)	46.7 µM (inactive)	43.1 µM (inactive)	> 100 µM (inactive)	> 100 µM (inactive)	> 100 µM (inactive)	> 100 µM (inactive)	79.1 µM (inactive)	43.7 µM (inactive)	> 100 µM (inactive)	43.8 µM (inactive)	22.9 µM (inactive)	40.1 µM (inactive)
[O-][Cl+3]([O-])([O-])[O-].[O-][Cl+3]([O-])([O-])[O-].c1ccn2c(N3CCCC3)[n+]3c4ccccc4n4c(N5CCCC5)[n+]5ccccc5c4c3c2c1	> 100	38.3 µM (inactive)	0.745 µM (active)	> 100 µM (inactive)	> 100 µM (inactive)	30.9 µM (inactive)	34.6 µM (inactive)	–	29.4 µM (inactive)	–	> 100 µM (inactive)	> 100 µM (inactive)	> 100 µM (inactive)	43.5 µM (inactive)	41.8 µM (inactive)	27.6 µM (inactive)	–	> 100 µM (inactive)	33.4 µM (inactive)	> 100 µM (inactive)
C=CCOc1cccc(C2(O)c3ccccc3C3=NCCCN32)c1 (centres undefined)	20.6	–	3.38 µM (inactive)	3.77 µM (inactive)	10.2 µM (inactive)	> 100 µM (inactive)	16 µM (inactive)	13.8 µM (inactive)	2.45 µM (inactive)	37.7 µM (inactive)	15.4 µM (inactive)	34.7 µM (inactive)	10.9 µM (inactive)	17.4 µM (inactive)	16.1 µM (inactive)	8.49 µM (inactive)	8.57 µM (inactive)	5.51 µM (inactive)	28.6 µM (inactive)	14.5 µM (inactive)
